The results in this text go back to patent publication US4568687A, “N-[2-4-(1H-Imidazol-1-yl)alkyl]-arylamides and pharmaceutical compositions” (American Cyanamid Company, priority 1984, dated 1986).

Usually inhibition stands for the share of the control response that was lost under treatment.

One experiment has as its target T1, thromboxane synthetase (Rattus norvegicus, UniProt P49430).
T1 construct: The platelets were isolated by centrifuging the PRP for 10 minutes; endogenous in cells; host or cells: washed platelets from arterial blood of Okamoto-Aoki spontaneously hypertensive rats (rats from Taconic Farms)
T1 sequence (P49430 1-533): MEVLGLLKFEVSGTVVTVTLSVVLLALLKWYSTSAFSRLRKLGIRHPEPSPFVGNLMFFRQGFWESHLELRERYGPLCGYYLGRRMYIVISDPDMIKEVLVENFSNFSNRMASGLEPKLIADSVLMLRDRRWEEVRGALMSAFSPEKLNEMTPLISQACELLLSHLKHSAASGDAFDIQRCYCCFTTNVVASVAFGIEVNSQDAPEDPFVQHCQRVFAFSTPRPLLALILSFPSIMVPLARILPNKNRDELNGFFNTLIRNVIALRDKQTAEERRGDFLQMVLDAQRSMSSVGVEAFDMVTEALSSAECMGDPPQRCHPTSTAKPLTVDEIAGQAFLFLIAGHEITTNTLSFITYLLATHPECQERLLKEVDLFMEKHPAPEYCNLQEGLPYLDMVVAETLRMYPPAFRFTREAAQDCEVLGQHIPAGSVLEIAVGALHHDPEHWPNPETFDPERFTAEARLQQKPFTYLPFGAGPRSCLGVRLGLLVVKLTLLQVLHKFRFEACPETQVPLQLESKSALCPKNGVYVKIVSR
Nature of the experiment: Inhibition of thromboxane (TXB2) formation in washed rat platelets, TXB2 by direct radioimmunoassay. Format: cell-based, Okamoto-Aoki spontaneously hypertensive rats (SHR). The settings on record: 10 min; Dose 10^-4 (unit inferred); SHR platelet suspension, 10 minutes at 37° C. The procedure: Under urethan anesthesia, […] of arterial blood was collected in one ml. of 3.2% sodium citrate in a polystyrene tube from Okamoto-Aoki spontaneously hypertensive rats (SHR) (Taconic Farms, Germantown, NY) between 19 and 24 weeks in age. The blood was diluted with 3 ml. cold saline and centrifuged at room temperature for 15 minutes at 460×g. The platelet rich plasma (PRP) was separated. The platelets were isolated by centrifuging the PRP for 10 minutes at 1060×g and were washed in 4 ml. cold oxygenated Krebs phosphate buffer, pH 7.4. The chilled patelets recovered from centrifuging at 800×g for 10 minutes were resuspended in oxygenated Krebs phosphate buffer and diluted to contain 4.5-6.0×10^4 platelets/μl.
The inhibition of thromboxane (TX) formation was studied by determining the […] of thromboxane B2 (TXB2), the stable hydrolysis product of TXA2. Assay samples, prepared on ice, contained 200 μl platelet suspension, 50 μl saline, and 50 μl vehicle or drug under study (OKY-1581, UK-37248-01, 1-benzylimidazole, or indomethacin). The samples were incubated for 10 minutes at 37° C. in a metabolic shaker. The reaction was terminated by immersing the tubes in an ice bath and adding 50 μl of 0.5M citric acid. The samples were centrifuged for 10 minutes in a refrigerated centrifuge and the supernatants thus obtained were decanted and stored at -20° C. The TXB2 content for each sample was determined by a direct radioimmunoassay (RIA) utilizing a TXB2 specific RIA kit purchased from New England Nuclear, Boston, MA and expressed as pg TXB2 formed minute^-1 sample^-1, from which the percent inhibition of TXB2 formation was calculated.

The test system of experiment [1] is spontaneously hypertensive rats of the Okamoto strain. The experiment is described as follows: Hypotensive activity: mean arterial blood pressure (MABP) in spontaneously hypertensive rats, method of Chan and Poorvin. Type of experiment: in vivo. The settings on record: gavage, 100 mg/kg or less, two doses 24 hours apart, sodium chloride loading; 28 hours after initial dose; average of 1-4 rats; initial average 160±1.5 mm; active if ≤116 (1 rat), ≤122 (2 rats), ≤128 (3 rats). As for the experimental part: The novel compounds of the present invention are also active hypotensive agents and were tested for hypotensive activity by the method of P. S. Chan and D. Poorvin, Clinical and Experimental Hypertension, 1 (6), 817-830 (1979). Male, 16 week old, spontaneously hypertensive rats of the Okamoto strain, from Taconic Farms, Germantown, N.Y. having an average mean arterial blood pressure of 160±1.5 mm of mercury are used in the test. […] A rat is dosed by gavage with a test compound, suspended in 2% pre-boiled starch at a concentration of 50 mg/ml, at a dose of 100 mg/kg of body weight or less, with 0.9% sodium chloride loading at a dose of 25 ml/kg of body weight. A second identical dose of the test compound, without sodium chloride loading is given 24 hours later. At 28 hours after the initial dose, the mean arterial blood pressure (MABP) is measured by the method of Chan and Poorvin vide supra. The procedure is repeated in a second and third rat when necessary. Based on the data obtained and using the three-stage "sequential probability ratio test" statistical method, the criteria for activity or retest are as follows:
If the blood pressure in the first rat is ≤116 mm mercury the compound is considered active. If the blood pressure is between […], a second rat is used. If the average blood pressure of the first and second rats is ≤122 mm the compound is considered active. If the average blood pressure is between 123 and 137 mm, a third rat is used. If the average blood pressure of the three rats is ≤128 mm the compound is considered active. The results of this test on representative compounds of the present invention appear in Table II below.

Structures can show the parent of a compound that is named as a salt.

With `O=C1c2ccccc2C(=O)N1CCCCn1ccnc1` [2-[4-(1H-Imidazol-1-yl)butyl]-1H-isoindole-1,3(2H)-dione], the inhibition at 100 µM against thromboxane synthetase stood at 99%. The “MABP/mm Hg” value in experiment [1] was found to be 120 mm Hg. `O=C(NCCCn1ccnc1)c1ccccc1` [N-[3-(1H-Imidazol-1-yl)propyl]benzamide]: at 100 µM the inhibition at thromboxane synthetase was 96.3%. Further, in experiment [1], the “MABP/mm Hg” value amounted to 128 mm Hg.

With `O=C(NCCCCn1ccnc1)c1ccc(C(F)(F)F)cc1` [4-trifluoromethyl-N--[4-(1H--imidazol-1-yl)butyl]benzamide fumarate], at 100 µM the inhibition against thromboxane synthetase was 97%. In addition, the “MABP/mm Hg” value in experiment [1] turned out to be 123 mm Hg. With `Cc1cn(CCCNC(=O)c2ccc(Cl)cc2)cn1` [4-chloro-N--[3-(4-methyl-1H--imidazol-1-yl)propyl]benzamide], testing at 100 µM at thromboxane synthetase gave an inhibition of 93%. The “MABP/mm Hg” value in experiment [1] was 112 mm Hg. For `O=C(NCCCn1ccnc1)c1ccc2ccccc2c1` [N--[3-(1H--imidazol-1-yl)propyl]-2-naphthalenecarboxamide], in that order: 97% and 127 mm Hg.

At thromboxane synthetase, `CC(CCNC(=O)c1ccc(Cl)c(Cl)c1)n1ccnc1` (stereo not shown) [3,4-dichloro-N--[3-(1H--imidazol-1-yl)butyl]benzamide] returned an inhibition at 100 µM of 86%. Moreover, the “MABP/mm Hg” value in experiment [1] was 123 mm Hg. Regarding `Cc1nccn1CCCNC(=O)c1ccc(Cl)cc1` [4-chloro-N--[3-(2-methyl-1H--imidazol-1-yl)propyl]benzamide], in experiment [1], the “MABP/mm Hg” value is 121 mm Hg. `Nc1ccc(Cl)cc1C(=O)NCCCn1ccnc1` [2-amino-5-chloro-N--[3-(1H--imidazol-1-yl)propyl]benzamide] returned an inhibition at 100 µM against thromboxane synthetase of 96%. For the same molecule, the “MABP/mm Hg” value in experiment [1] amounted to 113 mm Hg.

On to `Cc1cn(CCCNC(=O)c2ccc(Cl)c(Cl)c2)cn1` [3,4-dichloro-N--[3-(4-methyl-1H--imidazol-1-yl)propyl]benzamide], for which the inhibition at 100 µM at thromboxane synthetase is 90%. Also, in experiment [1], the “MABP/mm Hg” value is reported as 116 mm Hg.

On thromboxane synthetase, `O=C(NCCCn1ccnc1)c1ccc(Br)cc1` [4-bromo-N--[3-(1H--imidazol-1-yl)propyl]benzamide] yielded an inhibition at 100 µM of 85%. The “MABP/mm Hg” value in experiment [1] worked out at 120 mm Hg. For `Cc1cn(CCCNC(=O)c2ccc(Br)cc2)cn1` [4-bromo-N--[3-(4-methyl-1H--imidazol-1-yl)propyl]benzamide], in that order: 80% and 122 mm Hg. The corresponding values for `Cc1cn(CCCNC(=O)c2cccc(Cl)c2)cn1` [3-chloro-N--[3-(4-methyl-1H--imidazol-1-yl)propyl]benzamide] are 84% and 122 mm Hg. The corresponding values for `O=C(NCCCn1ccnc1)c1ccccc1-c1ccccc1` [2-phenyl-N--[3-(1H--imidazol-1-yl)propyl]benzamide] are 95% and 124 mm Hg. Take `O=C(NCCCn1ccnc1)c1cccc2ccccc12` [N--[3-(1H--imidazol-1-yl)propyl]-1-naphthalenecarboxamide]: testing at 100 µM against thromboxane synthetase gave an inhibition of 75%. In experiment [1], the “MABP/mm Hg” value is given as 124 mm Hg. On to `O=C(NCCCn1cnc(-c2ccccc2)c1)c1ccc(Cl)cc1` [4-Chloro-N-[3-(4-phenyl-1H-imidazol-1-yl)propyl]-benzamide], for which the inhibition at 100 µM against thromboxane synthetase is 69%. The “MABP/mm Hg” value in experiment [1] is 125 mm Hg. The corresponding values for `Cc1cn(CCCNC(=O)c2ccc(C(F)(F)F)cc2)cn1` [4-trifluoromethyl-N--[3-(4-methyl-1H--imidazol-1-yl)propyl]benzamide] are 92% and 114 mm Hg.

Turning to `CC(CCN1C(=O)c2ccccc2C1=O)n1ccnc1` (stereo not shown) [2-[3-(1H--imidazol-1-yl)butyl]-1H--isoindole-1,3(2H)--dione], the “MABP/mm Hg” value in experiment [1] is listed as 124 mm Hg. On the same count and under the same terms, the figure for `O=C1c2ccccc2C(=O)N1CCCCCCn1ccnc1` [2-[6-(1H--imidazol-1-yl)hexyl]-1H--isoindole-1,3(2H)--dione] is 110 mm Hg. `Cc1cc(Cl)cc(C(=O)NCCCn2ccnc2)c1N` [2-amino-5-chloro-3-methyl-N--[3-(1H--imidazol-1-yl)propyl]benzamide dihydrochloride salt] yielded an inhibition at 100 µM on thromboxane synthetase of 80%. In addition, the “MABP/mm Hg” value in experiment [1] was determined as 125 mm Hg.

Take `C=CCNc1ccc(Cl)cc1C(=O)NCCCn1ccnc1` [2-Allylamino-5-chloro-N--[3-(1H--imidazol-1-yl)propyl]benzamide]: at thromboxane synthetase, the inhibition at 100 µM was found to be 95%. The “MABP/mm Hg” value in experiment [1] is given as 124 mm Hg.

As for `O=C(NCCCn1ccnc1)c1cccc(Cl)c1` [3-Chloro-N-[3-(1H-imidazol-1-yl)propyl]benzamide], on thromboxane synthetase, the inhibition at 100 µM was determined as 75.4%. Moreover, in experiment [1], the “MABP/mm Hg” value was 124 mm Hg. For `Cc1ccc(CC(=O)NCCCn2ccnc2)cc1` [N--[3-(1H--imidazol-1-yl)propyl]-4-methylbenzeneacetamide, hemifumarate], the “MABP/mm Hg” value in experiment [1] is given as 109 mm Hg.

For the molecule `O=C(NCCCn1ccnc1)c1ccc(Cl)cc1` [4-chloro-N--[3-(1H--imidazol-1-yl)propyl]benzamide], at thromboxane synthetase, the inhibition at 100 µM stood at 95%. In addition, the “MABP/mm Hg” value in experiment [1] is listed as 126 mm Hg. Take `O=C(NCCCn1ccnc1-c1ccccc1)c1ccc(Br)cc1` [4-bromo-N--[3-(2-phenyl-1H--imidazol-1-yl)propyl]benzamide, fumarate]: the “MABP/mm Hg” value in experiment [1] is reported as 115 mm Hg.
